Paper PMC7672424 (Nucleic Acids Research, 2020)

Tested on: FAM-TTA45-TAMRA (DNA, G4) GGGTTAGGGTTAGGGTTAGGGTTAGGGTTAGGGTTAGGGTTAGGG
Assay: FRET melting
Conditions: 100 mM K+ (KCl) plus potassium phosphate; 10 mM K2HPO4/KH2PO4 pH 7.0; 0.5 µM DNA, 20 µM compound

SMILES	ΔTm
COc1ccc(-c2nnc3c4cc5c(cc4n(Cc4ccccc4)cc2-3)OCCO5)cc1OC [BMPQ-5]	14.62 ± 0.46 °C

Tested on: MGC-803
Assay: Cell cytotoxicity assay (CCK8)
Format: cell-based, human
Conditions: CCK8, 48 h treatment
Procedure: (§1) The cell growth effect of BMPQ-1 against different cell lines were tested via measuring the quantity of living cells using the Cell Counting Kit-8 (CCK8) (DOJINDO, Japan) according to the instruction. Cells were seeded in a 96-well plate (5 × 10^3 cells/well) and grown for 24 h for attachment. Then the cells were treated with various concentrations of BMPQ-1 and incubated at 37°C with 5% CO2 for 48 h. After incubation, the old medium was discarded followed by adding fresh medium containing 10% FBS in DMEM. Then 100 μl CCK-8 (10% in grow medium) was added into each well, and the cells were further incubated for 1 h. The optical density (OD) was detected at 450 nm by an automated microplate reader (Bio-Rad). The IC50 values were derived from the curves of the mean percentage of survival against the drug concentration. All the experiments were performed in triplicate.
(§2) A Cell Counting Kit-8 (CCK8) (DOJINDO, Japan) was employed to evaluate the cytotoxicity of BMPQ-1 on human alveolar basal epithelial cancer cell line (A549), human hepatocellular carcinoma cancer cell line (HepG2), human gastric cancer cell line (MGC-803), human colon adenocarcinoma (HT29), human normal liver Cells (HL-7702).

SMILES	IC50
CN(C)c1ccc(Nc2c3ccc(NC(=O)CCN4CCCC4)cc3nc3cc(NC(=O)CCN4CCCC4)ccc23)cc1 [BRACO-19, reference compound]	7.07 ± 0.89 µM

Tested on: A549
Assay: Cell cytotoxicity assay (CCK8)
Format: cell-based, human
Conditions: CCK8, 48 h treatment
Procedure: as §1, §2

SMILES	IC50
CN(C)c1ccc(Nc2c3ccc(NC(=O)CCN4CCCC4)cc3nc3cc(NC(=O)CCN4CCCC4)ccc23)cc1 [BRACO-19, reference compound]	6.71 ± 0.45 µM
FC(F)(F)c1ccc(Cn2cc3c(-c4ccc5c(c4)OCO5)nnc-3c3cc4c(cc32)OCO4)cc1 [BMPQ-2]	1.99 ± 0.04 µM
Cc1ccc(Cn2cc3c(-c4ccc5c(c4)OCO5)nnc-3c3ccccc32)cc1 [BMPQ-3]	> 32 µM
OCCn1cc2c(-c3ccc4c(c3)OCO4)nnc-2c2cc3c(cc21)OCO3 [BMPQ-4]	> 32 µM
COc1ccc(-c2nnc3c4cc5c(cc4n(Cc4ccccc4)cc2-3)OCCO5)cc1OC [BMPQ-5]	5.39 ± 0.46 µM
COc1ccc(-c2nnc3c4cc5c(cc4n(Cc4ccccc4)cc2-3)OCO5)cc1 [BMPQ-6]	2.49 ± 0.03 µM

Tested on: HT29
Assay: Cell cytotoxicity assay (CCK8)
Format: cell-based, human
Conditions: CCK8, 48 h treatment
Procedure: as §1, §2

SMILES	IC50
CN(C)c1ccc(Nc2c3ccc(NC(=O)CCN4CCCC4)cc3nc3cc(NC(=O)CCN4CCCC4)ccc23)cc1 [BRACO-19, reference compound]	14.2 ± 1.78 µM

Tested on: HepG2
Assay: Cell cytotoxicity assay (CCK8)
Format: cell-based, human
Conditions: CCK8, 48 h treatment
Procedure: as §1, §2

SMILES	IC50
CN(C)c1ccc(Nc2c3ccc(NC(=O)CCN4CCCC4)cc3nc3cc(NC(=O)CCN4CCCC4)ccc23)cc1 [BRACO-19, reference compound]	6.25 ± 0.8 µM

Tested on: TTA (DNA, G4) GGGTTAGGGTTAGGGTTAGGG
Assay: CD melting
Conditions: 50 mM K+ (KCl); 10 mM Tris-HCl pH 7.4; 20 µM compound, 5 µM DNA

SMILES	ΔTm
Cc1ccc(Cn2cc3c(-c4ccc5c(c4)OCO5)nnc-3c3ccccc32)cc1 [BMPQ-3]	1.1 °C
OCCn1cc2c(-c3ccc4c(c3)OCO4)nnc-2c2cc3c(cc21)OCO3 [BMPQ-4]	2.3 °C
COc1ccc(-c2nnc3c4cc5c(cc4n(Cc4ccccc4)cc2-3)OCCO5)cc1OC [BMPQ-5]	4.3 °C

Tested on: TTA45 (DNA, G4) GGGTTAGGGTTAGGGTTAGGGTTAGGGTTAGGGTTAGGGTTAGGG
Assay: CD melting
Conditions: 50 mM K+; 10 mM Tris-HCl pH 7.4; 5 µM DNA, 20 µM compound

SMILES	ΔTm
FC(F)(F)c1ccc(Cn2cc3c(-c4ccc5c(c4)OCO5)nnc-3c3cc4c(cc32)OCO4)cc1 [BMPQ-2]	7.0 °C
COc1ccc(-c2nnc3c4cc5c(cc4n(Cc4ccccc4)cc2-3)OCO5)cc1 [BMPQ-6]	3.5 °C

Tested on: TTA45 (DNA, G4) GGGTTAGGGTTAGGGTTAGGGTTAGGGTTAGGGTTAGGGTTAGGG
Assay: CD melting
Conditions: 50 mM K+ (KCl); 10 mM Tris-HCl pH 7.4; 20 µM compound, 5 µM DNA

SMILES	ΔTm
Cc1ccc(Cn2cc3c(-c4ccc5c(c4)OCO5)nnc-3c3ccccc32)cc1 [BMPQ-3]	5.1 °C
OCCn1cc2c(-c3ccc4c(c3)OCO4)nnc-2c2cc3c(cc21)OCO3 [BMPQ-4]	4.9 °C
COc1ccc(-c2nnc3c4cc5c(cc4n(Cc4ccccc4)cc2-3)OCCO5)cc1OC [BMPQ-5]	4.6 °C

Tested on: TTA (DNA, G4) GGGTTAGGGTTAGGGTTAGGG
Assay: CD melting
Conditions: 50 mM K+; 10 mM Tris-HCl pH 7.4; 5 µM DNA, 20 µM compound

SMILES	ΔTm
FC(F)(F)c1ccc(Cn2cc3c(-c4ccc5c(c4)OCO5)nnc-3c3cc4c(cc32)OCO4)cc1 [BMPQ-2]	2.3 °C
COc1ccc(-c2nnc3c4cc5c(cc4n(Cc4ccccc4)cc2-3)OCO5)cc1 [BMPQ-6]	1.0 °C

Tested on: FAM-TTA45-TAMRA (DNA, G4) GGGTTAGGGTTAGGGTTAGGGTTAGGGTTAGGGTTAGGGTTAGGG
Assay: FRET melting
Conditions: 100 mM K+ (KCl) plus 10 mM potassium phosphate; pH 7.0; 20 µM compound, 0.5 µM DNA

SMILES	ΔTm
FC(F)(F)c1ccc(Cn2cc3c(-c4ccc5c(c4)OCO5)nnc-3c3cc4c(cc32)OCO4)cc1 [BMPQ-2]	12.59 ± 0.54 °C
Cc1ccc2c(c1)c1nnc(-c3ccc(F)cc3)c-1cn2Cc1ccccc1	6.43 ± 0.70 °C
Cc1ccc(Cn2cc3c(-c4ccc5c(c4)OCO5)nnc-3c3ccccc32)cc1 [BMPQ-3]	10.28 ± 0.15 °C
COc1cccc(Cn2cc3c(-c4ccc5c(c4)OCO5)nnc-3c3cc4c(cc32)OCO4)c1 [Compound 30]	13.40 ± 1.12 °C
Clc1ccc(-n2cc3c(-c4ccccc4)nnc-3c3ccccc32)cc1	2.54 ± 0.16 °C
OCCn1cc2c(-c3ccc4c(c3)OCO4)nnc-2c2cc3c(cc21)OCO3 [BMPQ-4]	7.92 ± 0.12 °C
Fc1ccc(-c2nnc3c4cc5c(cc4n(Cc4ccccc4F)cc2-3)OCCO5)cc1 [Compound 33]	10.42 ± 1.60 °C
Cc1ccc(-c2nnc3c4cc5c(cc4n(Cc4ccccc4)cc2-3)OCO5)cc1C [Compound 27]	14.08 ± 2.11 °C
c1cc2c(cc1Cn1cc3c(-c4ccc5c(c4)OCO5)nnc-3c3cc4c(cc31)OCO4)OCO2	11.56 ± 0.36 °C
COc1ccc2c(c1)c1nnc(-c3ccc(F)cc3)c-1cn2Cc1ccccc1	8.38 ± 1.73 °C
CCOc1ccc2c(c1)c1nnc(-c3ccccc3)c-1cn2-c1ccc(Cl)cc1	0.98 ± 0.69 °C
COc1ccc(-c2nnc3c4cc5c(cc4n(Cc4ccccc4)cc2-3)OCO5)cc1 [BMPQ-6]	11.68 ± 0.53 °C

Tested on: TTA45
Assay: FRET melting assay, stabilization of TTA45
Format: binding, human
Conditions: 0.5 µM TTA45; 20 µM compounds; 10 mM K2HPO4/KH2PO4, 100 mM KCl, pH 7.0
Procedure: Based on the conventional G-quadruplex ligand design ([46]), ∼400 compounds were selected from Chinese National Compound library of Peking University (PKU-CNCL). These compounds were evaluated for their ability to bind to TTA45 by Fluorescence Resonance Energy Transfer (FRET) assay (Supplementary Tables S1 and S2) ([47]). […] Compounds 21-38 were purchased to study their binding with TTA45 by FRET (Supplementary Table S3). […] page 4: Table S2. Stabilization of TTA45 as determined by FRET assays (continued). Compounds Structures ΔTm/°C Compounds Structures ΔTm/°C 23 10.3 25 14.6 […] OH 24 […] KCl, pH 7.0) was determined by FRET procedure, and Tm/°C were derived by their difference. The concentration of compounds 21-26 were 20 μM , and other compounds were 50 μM. FRET assay was carried out on the Real-Time PCR 3.2 machine (Analytik Jena, Germany). The total reaction volume was 20 μL with 0.5 μM of oligonucleotide labelled with FAM at the 3' end and TAMRA at 5' end in 10 mM K2HPO4/KH2PO4 (pH 7.0) containing 100 mM KCl. […] Then compounds with various concentrations were added into the DNA samples.

SMILES	ΔTm/°C, TTA45 stabilization by FRET (Table S3)
FC(F)(F)c1ccc(Cn2cc3c(-c4ccc5c(c4)OCO5)nnc-3c3cc4c(cc32)OCO4)cc1 [BMPQ-2]	12.59 ± 0.54 °C
Cc1ccc(Cn2cc3c(-c4ccc5c(c4)OCO5)nnc-3c3ccccc32)cc1 [BMPQ-3]	10.28 ± 0.15 °C
COc1cccc(Cn2cc3c(-c4ccc5c(c4)OCO5)nnc-3c3cc4c(cc32)OCO4)c1 [Compound 30]	13.40 ± 1.12 °C
OCCn1cc2c(-c3ccc4c(c3)OCO4)nnc-2c2cc3c(cc21)OCO3 [BMPQ-4]	7.92 ± 0.12 °C
Fc1ccc(-c2nnc3c4cc5c(cc4n(Cc4ccccc4F)cc2-3)OCCO5)cc1 [Compound 33]	10.42 ± 1.60 °C
COc1ccc(-c2nnc3c4cc5c(cc4n(Cc4ccccc4)cc2-3)OCCO5)cc1OC [BMPQ-5]	14.62 ± 0.46 °C
Cc1ccc(-c2nnc3c4cc5c(cc4n(Cc4ccccc4)cc2-3)OCO5)cc1C [Compound 27]	14.08 ± 2.11 °C
COc1ccc(-c2nnc3c4cc5c(cc4n(Cc4ccccc4)cc2-3)OCO5)cc1 [BMPQ-6]	11.68 ± 0.53 °C

Same assay, conditions: 0.5 µM TTA45; compounds 21-26 20 µM; 10 mM K2HPO4/KH2PO4, 100 mM KCl, pH 7.0

SMILES	ΔTm/°C, stabilization of TTA45 by FRET (Table S2)
FC(F)(F)c1ccc(Cn2cc3c(-c4ccc5c(c4)OCO5)nnc-3c3cc4c(cc32)OCO4)cc1 [BMPQ-2]	12.6 °C
Cc1ccc(Cn2cc3c(-c4ccc5c(c4)OCO5)nnc-3c3ccccc32)cc1 [BMPQ-3]	10.3 °C
OCCn1cc2c(-c3ccc4c(c3)OCO4)nnc-2c2cc3c(cc21)OCO3 [BMPQ-4]	7.9 °C
COc1ccc(-c2nnc3c4cc5c(cc4n(Cc4ccccc4)cc2-3)OCCO5)cc1OC [BMPQ-5]	14.6 °C
COc1ccc(-c2nnc3c4cc5c(cc4n(Cc4ccccc4)cc2-3)OCO5)cc1 [BMPQ-6]	11.7 °C

Tested on: TTA
Assay: not given
Conditions: CD melting; 5 µM DNA, 20 µM compound; 10 mM Tris-HCl, 50 mM KCl, pH 7.4

SMILES	ΔTm (°C) TTA
FC(F)(F)c1ccc(Cn2cc3c(-c4ccc5c(c4)OCO5)nnc-3c3cc4c(cc32)OCO4)cc1 [BMPQ-2]	2.3 °C
Cc1ccc(Cn2cc3c(-c4ccc5c(c4)OCO5)nnc-3c3ccccc32)cc1 [BMPQ-3]	1.1 °C
OCCn1cc2c(-c3ccc4c(c3)OCO4)nnc-2c2cc3c(cc21)OCO3 [BMPQ-4]	2.3 °C
COc1ccc(-c2nnc3c4cc5c(cc4n(Cc4ccccc4)cc2-3)OCCO5)cc1OC [BMPQ-5]	4.3 °C
COc1ccc(-c2nnc3c4cc5c(cc4n(Cc4ccccc4)cc2-3)OCO5)cc1 [BMPQ-6]	1.0 °C

Tested on: TTA45
Assay: CD melting, DNA stabilization
Format: binding, human
Conditions: 5 µM DNA, 20 µM compound, 10 mM Tris-HCl, 50 mM KCl, pH 7.4
Description: Compounds Structures IC /µM m

SMILES	ΔTm (°C) TTA45
FC(F)(F)c1ccc(Cn2cc3c(-c4ccc5c(c4)OCO5)nnc-3c3cc4c(cc32)OCO4)cc1 [BMPQ-2]	7.0 °C
Cc1ccc(Cn2cc3c(-c4ccc5c(c4)OCO5)nnc-3c3ccccc32)cc1 [BMPQ-3]	5.1 °C
OCCn1cc2c(-c3ccc4c(c3)OCO4)nnc-2c2cc3c(cc21)OCO3 [BMPQ-4]	4.9 °C
COc1ccc(-c2nnc3c4cc5c(cc4n(Cc4ccccc4)cc2-3)OCCO5)cc1OC [BMPQ-5]	4.6 °C
COc1ccc(-c2nnc3c4cc5c(cc4n(Cc4ccccc4)cc2-3)OCO5)cc1 [BMPQ-6]	3.5 °C
